Test system: 958667-338-R-J2-PDC tumor spheroids viability
Assay: Anticancer human tumor 958667-338-R-J2-PDC patient-derived colon adenocarcinoma cell line growth inhibition [PI3K]
Conditions: spheroids with HUVEC and MSC; for IC50: curve of first compound; for viability, T/C: stronger effect = lower value
Summary of the method: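 Complex 3D spheroids (cancer cells + endothelial HUVEC + mesenchymal stem cells); drug pairs of targeted agent x inavolisib/alpelisib/duvelisib/copanlisib; half-log series from ~Cmax, max 10 microM if Cmax unknown; endpoint viability.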
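Note: spheroids exposed to compounds for seven days before readout.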

CNC(=O)c1ccc(N2C(=S)N(c3ccc(C#N)c(C(F)(F)F)c3)C(=O)C2(C)C)cc1F + CC(Nc1ncnc2nc[nH]c12)c1cc2cccc(Cl)c2c(=O)n1-c1ccccc1
IC50 (second compound 0.0316 µM): > 10 µM | IC50 (second compound 0.1 µM): > 10 µM | IC50 (second compound 0.316 µM): > 10 µM | IC50 (second compound 1 µM): > 10 µM | IC50 (second compound 3.16 µM): > 10 µM | IC50 (second compound 10 µM): > 10 µM | viability, T/C (second compound 0.0316 µM, first compound 0.0316 µM): 103% | viability, T/C (second compound 0.0316 µM, first compound 0.1 µM): 94.7% | viability, T/C (second compound 0.0316 µM, first compound 0.316 µM): 105% | viability, T/C (second compound 0.0316 µM, first compound 1 µM): 101% | viability, T/C (second compound 0.0316 µM, first compound 3.16 µM): 113% | viability, T/C (second compound 0.0316 µM, first compound 10 µM): 99.2% | viability, T/C (second compound 0.1 µM, first compound 0.0316 µM): 119% | viability, T/C (second compound 0.1 µM, first compound 0.1 µM): 98.7% | viability, T/C (second compound 0.1 µM, first compound 0.316 µM): 87.1% | viability, T/C (second compound 0.1 µM, first compound 1 µM): 83.5% | viability, T/C (second compound 0.1 µM, first compound 3.16 µM): 114% | viability, T/C (second compound 0.1 µM, first compound 10 µM): 87% | viability, T/C (second compound 0.316 µM, first compound 0.0316 µM): 103% | viability, T/C (second compound 0.316 µM, first compound 0.1 µM): 88.3% | viability, T/C (second compound 0.316 µM, first compound 0.316 µM): 101% | viability, T/C (second compound 0.316 µM, first compound 1 µM): 107% | viability, T/C (second compound 0.316 µM, first compound 3.16 µM): 121% | viability, T/C (second compound 0.316 µM, first compound 10 µM): 107% | viability, T/C (second compound 1 µM, first compound 0.0316 µM): 96.7% | viability, T/C (second compound 1 µM, first compound 0.1 µM): 91.3% | viability, T/C (second compound 1 µM, first compound 0.316 µM): 102% | viability, T/C (second compound 1 µM, first compound 1 µM): 96.4% | viability, T/C (second compound 1 µM, first compound 3.16 µM): 104% | viability, T/C (second compound 1 µM, first compound 10 µM): 94% | viability, T/C (second compound 3.16 µM, first compound 0.0316 µM): 91.8% | viability, T/C (second compound 3.16 µM, first compound 0.1 µM): 86.3% | viability, T/C (second compound 3.16 µM, first compound 0.316 µM): 72.7% | viability, T/C (second compound 3.16 µM, first compound 1 µM): 101% | viability, T/C (second compound 3.16 µM, first compound 3.16 µM): 119% | viability, T/C (second compound 3.16 µM, first compound 10 µM): 84.2% | viability, T/C (second compound 10 µM, first compound 0.0316 µM): 103% | viability, T/C (second compound 10 µM, first compound 0.1 µM): 96.5% | viability, T/C (second compound 10 µM, first compound 0.316 µM): 101% | viability, T/C (second compound 10 µM, first compound 1 µM): 87.9% | viability, T/C (second compound 10 µM, first compound 3.16 µM): 115% | viability, T/C (second compound 10 µM, first compound 10 µM): 74.8%

Cn1cnc2c(F)c(Nc3ccc(Br)cc3Cl)c(C(=O)NOCCO)cc21 + CC(Nc1ncnc2nc[nH]c12)c1cc2cccc(Cl)c2c(=O)n1-c1ccccc1
IC50 (second compound 0.0316 µM): 0.365 µM | IC50 (second compound 0.1 µM): 0.261 µM | IC50 (second compound 0.316 µM): 0.363 µM | IC50 (second compound 1 µM): 0.28 µM | IC50 (second compound 3.16 µM): 0.21 µM | IC50 (second compound 10 µM): 0.0904 µM | viability, T/C (second compound 0.0316 µM, first compound 0.00949 µM): 89.8% | viability, T/C (second compound 0.0316 µM, first compound 0.03 µM): 80.5% | viability, T/C (second compound 0.0316 µM, first compound 0.0949 µM): 71% | viability, T/C (second compound 0.0316 µM, first compound 0.3 µM): 52.2% | viability, T/C (second compound 0.0316 µM, first compound 0.949 µM): 35.5% | viability, T/C (second compound 0.0316 µM, first compound 3 µM): 20% | viability, T/C (second compound 0.1 µM, first compound 0.00949 µM): 84.3% | viability, T/C (second compound 0.1 µM, first compound 0.03 µM): 80.6% | viability, T/C (second compound 0.1 µM, first compound 0.0949 µM): 62.6% | viability, T/C (second compound 0.1 µM, first compound 0.3 µM): 49.3% | viability, T/C (second compound 0.1 µM, first compound 0.949 µM): 31.3% | viability, T/C (second compound 0.1 µM, first compound 3 µM): 20.3% | viability, T/C (second compound 0.316 µM, first compound 0.00949 µM): 80.7% | viability, T/C (second compound 0.316 µM, first compound 0.03 µM): 97.4% | viability, T/C (second compound 0.316 µM, first compound 0.0949 µM): 74.8% | viability, T/C (second compound 0.316 µM, first compound 0.3 µM): 53.3% | viability, T/C (second compound 0.316 µM, first compound 0.949 µM): 32.2% | viability, T/C (second compound 0.316 µM, first compound 3 µM): 19.8% | viability, T/C (second compound 1 µM, first compound 0.00949 µM): 73.3% | viability, T/C (second compound 1 µM, first compound 0.03 µM): 83.5% | viability, T/C (second compound 1 µM, first compound 0.0949 µM): 59.7% | viability, T/C (second compound 1 µM, first compound 0.3 µM): 48.2% | viability, T/C (second compound 1 µM, first compound 0.949 µM): 33.9% | viability, T/C (second compound 1 µM, first compound 3 µM): 17% | viability, T/C (second compound 3.16 µM, first compound 0.00949 µM): 85.3% | viability, T/C (second compound 3.16 µM, first compound 0.03 µM): 81.6% | viability, T/C (second compound 3.16 µM, first compound 0.0949 µM): 57% | viability, T/C (second compound 3.16 µM, first compound 0.3 µM): 44.3% | viability, T/C (second compound 3.16 µM, first compound 0.949 µM): 31.3% | viability, T/C (second compound 3.16 µM, first compound 3 µM): 13.3% | viability, T/C (second compound 10 µM, first compound 0.00949 µM): 78.3% | viability, T/C (second compound 10 µM, first compound 0.03 µM): 62.9% | viability, T/C (second compound 10 µM, first compound 0.0949 µM): 45.2% | viability, T/C (second compound 10 µM, first compound 0.3 µM): 41.7% | viability, T/C (second compound 10 µM, first compound 0.949 µM): 20.7% | viability, T/C (second compound 10 µM, first compound 3 µM): 10.4%
